Read-outs that look alike come from different tables or passages of the source.
Target: T1, SARS-CoV-2 MPro (main protease, 3CL protease, Nsp5) (Severe acute respiratory syndrome coronavirus 2, UniProt P0DTD1)
T1 construct: gene rep
Assay: fluorogenic NSP7 peptide cleavage, […] h preincubation, […] °C
Type: biochemical

Row | Molecule | IC50 [µM] | IC50 (pH 7.4, 0.05% Tween-20, 1 mM DTT, substrate 12.7 μM (Km), DMSO stock, possibly covalent warhead, read-out: IC50[DMSO]) [µM]
1 | O=Cc1cncc(C(=O)N2CCCC2c2cccc3ccccc23)c1 (centres unmarked) ['0292] | 100 | –
2 | N#CC(C(=O)c1cccnc1)c1cc(F)cc(F)c1 (centres unmarked) ['0431] | 50 | –
3 | CC1(Cc2ccc(F)cc2)CCCN1c1ncc(C=O)cn1 (centres unmarked) ['0892] | 140 | –
4 | Cc1noc(CCCOc2c(C)cc(Br)cc2C=O)n1 ['2961] | 100 | –
5 | O=Cc1ncc(Br)cc1OCc1ccc2c(c1)COC2 ['3620] | 55 | –
6 | O=Cc1ccc(Br)cc1OCc1ccc(Cl)c([N+](=O)[O-])c1 ['4218] | > 200 | –
7 | N#CC(C(=O)c1ccc([N+](=O)[O-])o1)c1cccnc1 (centres unmarked) ['5103] | 20 | –
8 | O=Cc1cnc(N2CC(c3nc4ccccc4[nH]3)C2)nc1 ['5156] | 80 | –
9 | O=C1CN(Cc2ccc(F)cc2)C(=O)N1c1cncc2ccccc12 ['5548] | 30 | –
10 | O=C1N[C@@]2(CCc3ccccc32)C(=O)N1c1cncc2ccccc12 ['6111] | 25 | –
11 | O=Cc1ncc(Br)cc1OCc1cc(Cl)cc(Br)c1 ['6117] | 7 | –
12 | N#Cc1ccc(Br)c(COc2cc(Br)cnc2C=O)c1 ['6690] | 2 | –
13 | Cc1c(C(=O)C(C#N)C(=O)Nc2ccccc2)nnn1-c1ccccc1 (centres unmarked) ['6792] | 100 | –
14 | O=Cc1ncc(Br)cc1OCc1ccc(Cl)c([N+](=O)[O-])c1 ['7021] | 1 | –
15 | O=Cc1ncc(Br)cc1OCc1ccc2ccccc2c1 ['7356] | 26 | –
16 | O=Cc1ncc(Br)cc1OCc1cc(Br)ccc1Cl ['8252] | 6 | –
17 | O=Cc1ncc(Br)cc1OCc1cccc([N+](=O)[O-])c1 ['9112] | 35 | –
18 | O=Cc1ncc(Br)cc1OCc1ccc(Cl)c(Br)c1 ['9121] | 6 | –
19 | Cc1ccc(COc2cc(Br)cnc2C=O)cc1[N+](=O)[O-] ['9218] | 12 | –

Row | Molecule | IC50 [µM] | IC50 (pH 7.4, 0.05% Tween-20, 1 mM DTT, substrate 12.7 μM (Km), DMSO stock, possibly covalent warhead, read-out: IC50[DMSO]) [µM]
20 | O=Cc1ncc(Br)cc1OCc1cccc([N+](=O)[O-])c1Cl ['9220] | 33 | –
21 | O=Cc1ncc(Br)cc1OCc1ccc(Cl)cc1 ['9313] | 22 | –
22 | C[C@H]1CN(C(=O)Nc2cncc3ccccc23)Cc2ccccc2O1 [SG-0001] | 55 | –
23 | COc1ccc(Br)cc1C(=O)C(=O)Nc1cncc(C)c1 [Z1355254448] | 110 | –
24 | CSc1ccncc1NC(=O)C(=O)c1ccc(F)cc1 [Z1669286714] | 110 | –
25 | Cn1cccc1C(=O)C(=O)Nc1cnccc1Oc1ccccc1 [Z2195811405] | ~200 | –
26 | O=C1CCN(Cc2cccs2)C(=O)N1Cc1ccc[nH]c1=O [Z3535317212] | 29 | –
27 | CC1(C)CN(C(=O)Nc2cncc3ccccc23)Cc2cc(Br)ccc2O1 [Z4924562413] | 13 | –
28 | O=C1NC(c2cccc3ccccc23)C(=O)N1c1cncc2ccccc12 (centres unmarked) [Z4929615577] | 10 | –
29 | CC1CCC2(NC(=O)N(c3cncc4ccccc34)C2=O)c2ccccc21 (centres unmarked) [Z4929616137] | 8 | –
30 | O=C(Cc1cncc2ccccc12)N1CCOc2ccc(Cl)cc2C1 [Z4946671001] | 5 | –
31 | Cc1ccc(F)cc1C(=O)C(=O)Nc1cncc(Br)c1C [Z5420225795] | 40 | –
32 | COc1cc(C=O)c(OS(=O)(=O)CC2CCCCC2)cc1OC [ZINC271072260] | 143 | –
33 | Cc1noc(C)c1CCCNc1nc(-c2ccncc2)nc2ccccc12 [ZINC301553312] | 63 | –
34 | COC(=O)c1cc(C#N)c(=O)n(Cc2cccc(F)c2Cl)c1 [ZINC338540162] | 30 | –
35 | O=C(Cc1cccnc1)N(Cc1ccccn1)c1ccc(Cl)cc1 [ZINC346371112] | 98 | –
36 | CC1CN(C(=O)CCn2cc(Br)ccc2=O)Cc2ccccc2O1 (centres unmarked) [ZINC553840273] | 88 | –
37 | Cc1cc(C(=O)C(=O)Nc2cnccc2F)ccc1F [ZINC5420738300] | 160 | –
38 | ZINC795258204 | – | 177

From publication doi:10.1101/2022.07.05.498881v1 (biorxiv, 2022)
